The source made the active and inactive calls.
Assays:
[1] = target: Beta-galactosidase (Escherichia coli, UniProt Q8VNN2); assay: detection-enzyme interference by beta-gal modulators – biochemical, E. coli enzyme, set 3, artefact control for CCR6 antagonist project, dose response (AID 504712); format: functional
[2] = target: Heat shock protein HSP 90-alpha (Homo sapiens, UniProt P07900); format: functional, organism-based
[3] = target: Eukaryotic translation initiation factor 4E (Mus musculus, UniProt P63073); assay: blockers of eIF4G binding by eIF4E – biochemical, TR-FRET, dose response (AID 855); format: functional;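 further: potency for disrupting eIF4E binding to eIF4GI seen as loss of FRET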
Eukaryotic translation initiation factor 4E, sequence (P63073 whole entry): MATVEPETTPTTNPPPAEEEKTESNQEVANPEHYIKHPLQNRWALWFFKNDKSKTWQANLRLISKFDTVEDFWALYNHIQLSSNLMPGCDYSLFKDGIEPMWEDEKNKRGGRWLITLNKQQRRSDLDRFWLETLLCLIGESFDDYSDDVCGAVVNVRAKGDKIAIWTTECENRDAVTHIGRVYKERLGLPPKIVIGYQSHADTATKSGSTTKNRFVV

[4] = target: T1, Neuropeptides B/W receptor type 1 (Homo sapiens, UniProt P48145); assay: human NPBW1 receptor blockade, IC50 – cell-based, fluorescence, dose response, late-stage follow-up (AID 463251); format: functional
T1 sequence (P48145 whole entry): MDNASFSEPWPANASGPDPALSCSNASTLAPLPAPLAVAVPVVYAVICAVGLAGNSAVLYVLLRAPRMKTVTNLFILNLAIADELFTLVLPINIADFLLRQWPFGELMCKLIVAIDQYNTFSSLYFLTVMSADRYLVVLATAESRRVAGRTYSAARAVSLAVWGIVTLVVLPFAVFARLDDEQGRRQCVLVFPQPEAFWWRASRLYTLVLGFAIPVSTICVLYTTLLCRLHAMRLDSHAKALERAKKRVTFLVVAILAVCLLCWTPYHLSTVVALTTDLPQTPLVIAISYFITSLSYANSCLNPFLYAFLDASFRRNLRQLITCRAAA

[5] = target: Melanin-concentrating hormone receptor 1 (Homo sapiens, UniProt Q99705); assay: Late-stage fluorescence-based counterscreen for antagonists of the G-protein coupled receptor 7 (GPR7): cell-based dose response assay to identify antagonists of the melanin-concentrating hormone receptor 1 (MCHR1). [Related pubchem assays (depositor defined):AID1861, AID1880, AID1952, AID2148, AID2251, AID2257, AID485339]; format: functional;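 further: stimulated with 30 nM MCH peptide agonist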
Melanin-concentrating hormone receptor 1, sequence (Q99705 whole entry): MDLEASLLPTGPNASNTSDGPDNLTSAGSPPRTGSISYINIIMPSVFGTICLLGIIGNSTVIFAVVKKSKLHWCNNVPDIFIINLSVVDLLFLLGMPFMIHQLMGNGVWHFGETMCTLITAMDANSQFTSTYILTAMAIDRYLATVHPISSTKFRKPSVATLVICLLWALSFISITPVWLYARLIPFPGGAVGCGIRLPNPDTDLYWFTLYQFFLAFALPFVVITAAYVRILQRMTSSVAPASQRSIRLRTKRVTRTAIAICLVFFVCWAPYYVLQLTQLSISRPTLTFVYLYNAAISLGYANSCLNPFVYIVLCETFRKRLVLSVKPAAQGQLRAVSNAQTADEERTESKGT

[6] = target: T2, Caspase-7 (Homo sapiens, UniProt P55210); assay: potency of procaspase-7 enzyme activation – biochemical, absorbance, human, dual procaspase-3/-7 activator project, dose response (AID 504330)
T2 sequence (P55210 whole entry): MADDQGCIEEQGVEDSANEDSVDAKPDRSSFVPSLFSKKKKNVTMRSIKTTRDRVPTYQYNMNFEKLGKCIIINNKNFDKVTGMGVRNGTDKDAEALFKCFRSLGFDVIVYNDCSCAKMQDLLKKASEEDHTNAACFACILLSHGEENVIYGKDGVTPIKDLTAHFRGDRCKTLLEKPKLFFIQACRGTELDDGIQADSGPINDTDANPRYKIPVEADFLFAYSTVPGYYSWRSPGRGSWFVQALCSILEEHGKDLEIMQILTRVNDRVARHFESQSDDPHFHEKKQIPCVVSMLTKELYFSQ

[7] = target: T3, Caspase-3 (Homo sapiens, UniProt P42574); assay: activators of human procaspase-3 D3A mutant – biochemical, absorbance, PC-3 D3A mutant, counter-screen for dual procaspase-3/7 activator project, dose response (AID 504328)
T3 sequence (P42574 whole entry): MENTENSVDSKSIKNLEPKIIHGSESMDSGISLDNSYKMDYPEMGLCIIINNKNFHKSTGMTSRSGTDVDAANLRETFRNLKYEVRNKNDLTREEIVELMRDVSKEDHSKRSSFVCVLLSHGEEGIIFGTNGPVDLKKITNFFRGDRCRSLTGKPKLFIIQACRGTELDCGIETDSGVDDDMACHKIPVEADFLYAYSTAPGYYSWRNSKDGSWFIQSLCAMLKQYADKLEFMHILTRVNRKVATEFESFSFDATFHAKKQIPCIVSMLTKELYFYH

[8] = A cytotoxicity screen of small molecule inhibitors of the PhoP region in Salmonella typhi identified in the primary screen. [Related pubchem assays: 1850, 1864, 1985 ]; format: functional
[9] = target: Glyceraldehyde-3-phosphate dehydrogenase (Homo sapiens, UniProt P04406)
Glyceraldehyde-3-phosphate dehydrogenase, sequence (P04406 whole entry): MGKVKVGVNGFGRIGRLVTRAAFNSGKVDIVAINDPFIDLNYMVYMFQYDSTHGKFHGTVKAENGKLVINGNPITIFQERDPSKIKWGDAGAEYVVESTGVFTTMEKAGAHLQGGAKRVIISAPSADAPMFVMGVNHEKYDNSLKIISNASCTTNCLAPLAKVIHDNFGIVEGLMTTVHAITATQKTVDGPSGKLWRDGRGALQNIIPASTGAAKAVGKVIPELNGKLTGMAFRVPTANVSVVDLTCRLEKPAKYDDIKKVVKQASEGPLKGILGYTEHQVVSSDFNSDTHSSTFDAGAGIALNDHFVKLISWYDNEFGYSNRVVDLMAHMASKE

[10] = cells
[11] = target: Procathepsin L (Homo sapiens, UniProt P07711)
Procathepsin L, sequence (P07711 whole entry): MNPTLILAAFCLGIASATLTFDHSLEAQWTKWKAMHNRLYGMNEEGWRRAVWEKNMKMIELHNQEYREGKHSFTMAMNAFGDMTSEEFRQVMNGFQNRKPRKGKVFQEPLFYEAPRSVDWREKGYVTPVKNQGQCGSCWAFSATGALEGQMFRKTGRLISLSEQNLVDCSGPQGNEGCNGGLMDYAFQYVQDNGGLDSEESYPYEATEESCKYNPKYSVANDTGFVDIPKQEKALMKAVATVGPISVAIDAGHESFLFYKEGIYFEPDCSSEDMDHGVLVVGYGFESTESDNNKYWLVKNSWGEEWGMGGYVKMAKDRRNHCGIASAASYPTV

[12] = target: T4, Aspartyl aminopeptidase (Plasmodium falciparum 3D7, UniProt Q8I2J3)
T4 sequence (Q8I2J3 whole entry): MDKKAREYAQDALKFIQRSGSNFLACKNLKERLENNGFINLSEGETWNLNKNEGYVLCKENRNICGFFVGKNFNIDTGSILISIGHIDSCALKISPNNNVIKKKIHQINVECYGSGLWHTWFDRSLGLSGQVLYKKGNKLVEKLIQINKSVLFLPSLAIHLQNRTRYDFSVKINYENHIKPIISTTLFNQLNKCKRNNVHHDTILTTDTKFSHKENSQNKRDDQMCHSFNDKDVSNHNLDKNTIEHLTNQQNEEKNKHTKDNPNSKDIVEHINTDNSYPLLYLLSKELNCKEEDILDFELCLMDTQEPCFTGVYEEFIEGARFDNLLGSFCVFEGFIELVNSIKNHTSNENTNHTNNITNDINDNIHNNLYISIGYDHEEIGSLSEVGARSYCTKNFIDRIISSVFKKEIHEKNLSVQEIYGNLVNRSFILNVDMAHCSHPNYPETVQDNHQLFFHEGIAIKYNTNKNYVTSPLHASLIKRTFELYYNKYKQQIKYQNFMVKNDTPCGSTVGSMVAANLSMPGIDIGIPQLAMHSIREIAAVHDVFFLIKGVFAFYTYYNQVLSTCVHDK

Beta-galactosidase, sequence (Q8VNN2 whole entry): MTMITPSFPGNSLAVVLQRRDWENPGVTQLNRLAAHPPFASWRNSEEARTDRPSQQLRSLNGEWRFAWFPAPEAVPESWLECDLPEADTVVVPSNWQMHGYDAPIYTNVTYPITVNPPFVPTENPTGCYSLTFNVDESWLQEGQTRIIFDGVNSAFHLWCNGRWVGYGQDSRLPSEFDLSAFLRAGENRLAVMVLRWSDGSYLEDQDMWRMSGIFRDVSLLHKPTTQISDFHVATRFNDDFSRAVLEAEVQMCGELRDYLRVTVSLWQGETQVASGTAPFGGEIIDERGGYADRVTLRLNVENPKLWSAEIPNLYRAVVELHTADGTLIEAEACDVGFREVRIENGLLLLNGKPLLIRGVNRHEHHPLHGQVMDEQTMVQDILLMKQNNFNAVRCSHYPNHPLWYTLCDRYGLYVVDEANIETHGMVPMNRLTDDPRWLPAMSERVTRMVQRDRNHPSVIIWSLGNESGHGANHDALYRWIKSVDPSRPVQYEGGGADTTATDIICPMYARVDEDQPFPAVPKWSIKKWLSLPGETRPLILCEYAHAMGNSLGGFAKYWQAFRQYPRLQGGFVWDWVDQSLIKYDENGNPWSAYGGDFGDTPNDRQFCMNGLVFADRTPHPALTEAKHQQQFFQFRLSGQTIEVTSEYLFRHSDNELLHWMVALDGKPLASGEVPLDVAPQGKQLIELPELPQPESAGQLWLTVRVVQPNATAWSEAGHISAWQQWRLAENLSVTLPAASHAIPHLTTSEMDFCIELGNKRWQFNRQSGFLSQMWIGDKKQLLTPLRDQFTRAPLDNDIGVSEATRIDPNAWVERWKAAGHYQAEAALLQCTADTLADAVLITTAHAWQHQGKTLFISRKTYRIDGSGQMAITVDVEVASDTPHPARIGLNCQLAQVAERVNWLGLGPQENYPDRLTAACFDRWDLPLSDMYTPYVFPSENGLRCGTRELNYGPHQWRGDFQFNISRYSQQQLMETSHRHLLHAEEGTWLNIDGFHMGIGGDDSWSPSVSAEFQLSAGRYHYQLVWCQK

Question: With CC(C)Oc1cccc(C(=O)NC(=S)Nc2cccc(C(F)(F)F)c2)c1 as the molecule, how does the IC50 [1] read?
Answer: The IC50 was > 66.6 µM (inactive).

Question: For O=C(Oc1ccc(Cl)c2cccnc12)c1cccnc1, which AC50 [2] is on record?
Answer: The AC50 was 8.18 µM (active).

Question: What about the IC50 [1] of the same molecule?
Answer: Its IC50 is > 66.6 µM (inactive).

Question: Which IC50 [3] does the source give for CCOc1ccc(-n2c(-c3ccco3)n[nH]c2=S)cc1 here?
Answer: The IC50 was > 64 µM (inactive).

Question: With O=C(C1CCCCN1Cc1c(F)cccc1Cl)N1CCN(c2ccc([N+](=O)[O-])cc2)CC1 (centres undefined) as the molecule, how does the IC50 [4] read?
Answer: Its IC50 is 3.3 µM (active).

Question: And the IC50 [5]?
Answer: Its IC50 is 3.3 µM (active).

Question: For COC(=O)C1=NN(c2ccc(Cl)cc2)C2C(=O)N(c3ccccc3OC)C(=O)C12 (centres undefined), which EC50 [6] is on record?
Answer: Its EC50 is > 85.3 µM (inactive).

Question: And the EC50 [7]?
Answer: Its EC50 is > 85.3 µM (inactive).

Question: Which EC50 [8] does the source give for Cc1cc(C)c2nc(N=C(N)NC(=O)c3ccccc3)nc(C)c2c1 here?
Answer: Its EC50 is > 50 µM (active).

Question: Which EC50 [8] does the source give for COCCn1c(SCC(=O)Nc2nnc(C)s2)nnc1-c1c[nH]c2ccccc12 here?
Answer: The EC50 was > 50 µM (active).

Question: With CC(C)CNC(=O)c1cc(-c2ccc(Cl)cc2Cl)n[nH]1 as the molecule, how does the IC50 [9] read?
Answer: The IC50 was > 10 µM (inconclusive).

Question: With CN(Cc1nc(O)c2ccccc2n1)C(=O)c1cc(C2CC2)nn1-c1ccccc1 as the molecule, how does the IC50 [10] read?
Answer: Its IC50 is 21.6 µM (active).

Question: What does the source list for COc1cccc(-c2cc(C(=O)Nn3cnnc3)c3ccccc3n2)c1?
Answer: IC50 [11]: > 59.6 µM (not active); IC50 [12]: 1.87 µM (active)

From ChEMBL document CHEMBL1201862, “PubChem BioAssay data set” (2004)
